# Measurements published in US6911477B2, “Muscarinic receptor agonists” (Pfizer Inc., priority 1996, dated 2005).
# Where a name gives a salt, the structure may show the parent alone.
row,Compound,melting point
1,"Fc1ccc(N=C(NC(=Nc2ccccc2)N2CCCCCC2)c2c(F)cccc2F)cc1 (as salt: nitrate) [Example 56, N-(azepan-1-yl-phenylimino-methyl)-2,6-difluoro-N′-(4-fluoro-phenyl)-benzamidine]",171 to 173 °C
2,"Cc1cccc(C)c1C(=NC(=Nc1ccccc1)N1CCC(O)CC1C)Nc1ccc(F)cc1 (stereo not drawn) (as salt: hydrochloride) [Example 82, N-(4-fluoro-phenyl)-N′-[(4-hydroxy-2-methyl-piperidin-1-yl)-phenylimino-methyl]-2,6-dimethyl-benzamidine]",169 to 172 °C
3,"COc1ccc(NC(=NC(=Nc2ccccc2)N2CCCC2)c2ccccc2)cc1 (as salt: hydrochloride) [Example 15, N-(4-methoxy-phenyl)-N′-(phenylimino-pyrrolidin-1-yl-methyl)-benzamidine]",244 to 245 °C
4,"Cc1ccccc1C(=Nc1ccc(F)cc1)NC(=Nc1ccccc1Cl)N1CCCCC1C (stereo not drawn) (as salt: hydrochloride) [Example 79, N-[(2-chloro-phenylimino)-(2-methyl-piperidin-1-yl)-methyl]-N′-(4-fluoro-phenyl)-2-methyl-benzamidine]",208 to 210 °C
5,"Cc1ccccc1C(=CC(=NC1CCCCC1)N1CCCCC1C)Nc1ccc(F)cc1 (stereo not drawn) (as salt: hydrochloride) [Example 100, [3-cyclohexylimino-3-(2-methyl-piperidin-1-yl)-1-o-tolyl-propenyl]-(4-fluoro-phenyl)-amine]",> 125 °C (dec.)
6,"Cc1ccccc1C(=Nc1ccc(F)cc1)NC(=NC1CC1)C1(C)CCCCC1 (as salt: hydrochloride) [Example 106, N-[cyclopropylimino-(1-methyl-cyclohexyl)-methyl]-N′-(4-fluoro-phenyl)-2-methyl-benzamidine]",205 to 207 °C
7,"Cc1cccc(C)c1C(=Nc1ccc(F)cc1)NC(=Nc1ccccc1)N1C(C)CCCC1C (stereo not drawn) (as salt: hydrochloride) [Example 59, N-[(2,6-dimethyl-piperidin-1-yl)-phenylimino-methyl]-N′-(4-fluoro-phenyl)-2,6-dimethyl-benzamidine]",165 to 167 °C (dec.)
8,"Cc1ccccc1C(=NC(=Nc1ccccc1F)N1CCC(O)CC1)Nc1ccc(F)cc1 (as salt: hydrochloride) [Example 36, N-(4-fluoro-phenyl)-N′-[(2-fluoro-phenylimino)-(4-hydroxy-piperidin-1-yl)-methyl]-2-methyl-benzamidine]",174 to 175 °C
9,"Cc1ccccc1C(=NC(=Nc1ccccc1)N1CCCC(O)C1)Nc1ccc(F)cc1 (stereo not drawn) (as salt: hydrochloride) [Example 66, N-(4-fluoro-phenyl)-N′-[(3-hydroxy-piperidin-1-yl)-phenylimino-methyl]-2-methyl-benzamidine]",> 150 °C
10,"Cc1ccccc1C(=Nc1ccc(F)cc1)NC(=NC1CCCCC1)N1CCCCC1C (stereo not drawn) (as salt: hydrochloride) [Example 97, N-[cyclohexylimino-(2-methyl-piperidin-1-yl)-methyl]-N′-(4-fluoro-phenyl)-2-methyl-benzamidine]",> 160 °C (dec.)
11,"Cc1cccc(C)c1C(=Nc1ccc(F)cc1)NC(=Nc1ccccc1)N1C(C)CCCC1C (stereo not drawn) (as salt: hydrochloride) [Example 48, N-[(2,6-dimethyl-piperidin-1-yl)-phenylimino-methyl]-N′-(4-fluoro-phenyl)-2,6-dimethyl-benzamidine]",172 to 174 °C (dec.)
12,"Cc1cccc(C)c1C(=Nc1ccc(F)cc1)NC(=Nc1ccc(N)cc1)N1CCCCC1C (stereo not drawn) (as salt: hydrochloride) [Example 64, N-[(4-amino-phenylimino)-(2-methyl-piperidin-1-yl)-methyl]-N′-(4-fluoro-phenyl)-2,6-dimethyl-benzamidine]",179 to 181 °C
13,"Cc1cccc(C)c1C(=Nc1ccc(F)cc1)NC(=Nc1ccccc1Cl)N1CCCCC1C (stereo not drawn) (as salt: hydrochloride) [Example 85, N-[(2-chloro-phenylimino)-(2-methyl-piperidin-1-yl)-methyl]-N′-(4-fluoro-phenyl)-2,6-dimethyl-benzamidine]",207 to 209 °C
14,"CC1CCCCN1C(=Nc1ccccc1)NC(=Nc1ccc(F)cc1)c1ccccc1Cl (stereo not drawn) (as salt: hydrochloride) [Example 37, N-[(2-chloro-phenyl)-(4-fluoro-phenylimino)-methyl]2-methyl-N′-phenyl-piperidine-1-carboxamidine]",145 to 147 °C
15,"CC1CCCCN1C(N=C(Nc1ccc(F)cc1)c1c(Cl)cccc1Cl)=Nc1ccccc1 (stereo not drawn) (as salt: hydrochloride) [Example 45, 2,6-dichloro-N-(4-fluoro-phenyl)-N′-[(2-methyl-piperidin-1-yl)-phenylimino-methyl]-benzamidine]",153 to 155 °C (dec.)
16,"COc1ccc(NC(=CC(=Nc2ccccc2)N2CCCCO2)c2ccccc2C)cc1 (as salt: hydrochloride) [Example 94, (3-phenylimino-3-[1,2]oxazinan-2-yl-1-o-tolyl-propenyl)-(4-methoxy-phenyl)-amine]",192 to 194 °C

# Now from value to compound:
row,melting point,Compound
1,249 to 251 °C (dec.),"Cc1cccc(C)c1C(=NC(=Nc1ccccc1)N1CCOCC1)Nc1ccc(F)cc1 (as salt: hydrochloride) [Example 76, N-(4-fluoro-phenyl)-2,6-dimethyl-N′-(morpholin-4-yl-phenylimino-methyl)-benzamidine]"
2,213 to 214 °C,"Cc1cccc(C)c1C(=NC(=Nc1ccc(F)cc1)N1CCCCO1)Nc1ccc(F)cc1 (as salt: hydrochloride) [Example 50, N-(4-fluoro-phenyl)-N′-[(4-fluoro-phenylimino)-[1,2]oxazinan-2-yl-methyl]-2,6-dimethyl-benzamidine]"
3,218 to 220 °C,"Cc1ccccc1C(=Nc1ccccc1)NC(=Nc1ccccc1)N1CCC(O)CC1 (as salt: hydrochloride) [Example 24, N-[(4-hydroxy-piperidin-1-yl)-phenylimino-methyl]-2-methyl-N′-phenyl-benzamidine]"
4,224 to 225 °C,"Cc1ccccc1C(=Nc1ccccc1)NC(=Nc1ccc(F)cc1)N1CCC(O)CC1 (as salt: hydrochloride) [Example 29, N-[(4-fluoro-phenylimino)-(4-hydroxy-piperidin-1-yl)-methyl]-2-methyl-N′-phenyl-benzamidine]"
5,136 to 138 °C,"Cc1cccc(C)c1C(=Nc1ccc(F)cc1)NC(=NC1CCC1)N1CCCCC1C (stereo not drawn) (as salt: hydrochloride) [Example 102, N-[cyclobutylimino-(2-methyl-piperidin-1-yl)-methyl]-N′-(4-fluoro-phenyl)-2,6-dimethyl-benzamidine]"
6,198 to 200 °C (dec.),"c1ccc(N=C(N=C(Nc2ccccc2)c2ccccc2)N2CCCCC2)cc1 (as salt: hydroiodid) [Example 12, N-phenyl-N′-(phenylimino-piperidin-1-yl-methyl)-benzamidine]"
7,207 to 210 °C,"Cc1cccc(C)c1C(=NC(=Nc1cccnc1)N1CCCCC1C)Nc1ccc(F)cc1 (stereo not drawn) (as salt: hydrochloride) [Example 86, N-(4-fluoro-phenyl)-2,6-dimethyl-N′-[(2-methyl-piperidin-1-yl)-(pyridin-3-ylimino)-methyl]-benzamidine]"
8,199 to 200 °C (dec.),"Cc1ccccc1C(=NC(=Nc1ccccc1)N1CCCCO1)Nc1ccc(F)cc1 (as salt: hydrochloride) [Example 42, N-(4-fluoro-phenyl)-2-methyl-N′-([1,2]oxazinan-2-yl-phenylimino-methyl)-benzamidine]"
9,240 to 242 °C,"Cc1ccccc1C(=Nc1ccc(F)cc1)NC(=Nc1ccccc1)N1CCCCCC1 (as salt: hydrochloride) [Example 34, N-(azepan-1-yl-phenylimino-methyl)-N′-(4-fluoro-phenyl)-2-methyl-benzamidine]"
10,228 to 229 °C (dec.),"Cc1cccc(C)c1C(=NC(=Nc1ccccc1)N1CCC(=O)CC1)Nc1ccc(F)cc1 (as salt: hydrochloride) [Example 63, N-(4-fluoro-phenyl)-2,6-dimethyl-N′-[(4-oxo-piperidin-1-yl)-phenylimino-methyl]-benzamidine]"
11,180 to 182 °C,"CC1CCCCN1C(=Nc1ccccc1)NC(=Nc1ccccc1)c1ccccc1 (stereo not drawn) (as salt: hydroiodid) [Example 33, N-[(2-methyl-piperidin-1-yl)-phenylimino-methyl]-N′-phenyl-benzamidine]"
12,> 228 °C (dec.),"Fc1ccc(N=C(NC(=Nc2ccccc2)N2CCCCCC2)c2ccccc2)cc1 (as salt: hydroiodid) [Example 19, N-(azepan-1-yl-phenylimino-methyl)-N′-(4-fluoro-phenyl)-benzamidine]"
13,163 to 165 °C,"Cc1cccc(C)c1C(=NC(=Nc1ccccc1)N1CCC(O)CC1)Nc1ccc(F)cc1 (as salt: hydrochloride) [Example 9, N-(4-Fluoro-phenyl)N′-[(4-hydroxy-piperidin-1-yl)-phenylimino-methyl]-2,6-dimethyl-benzamidine]"
14,181 to 183 °C,"CC1CCCCN1C(=Nc1ccccc1)NC(=Nc1ccccc1)c1ccccc1 (stereo not drawn) (as salt: hydroiodid) [Example 32, N-[(2-methyl-piperidin-1-yl)-phenylimino-methyl]-N′-phenyl-benzamidine]"
15,241 to 243 °C,"COc1ccc(N=C(NC(=Nc2ccccc2)N2CCCCCC2)c2ccccc2)cc1 (as salt: hydroiodid) [Example 18, N-(azepan-1-yl-phenylimino-methyl)-N′-(4-methoxy-phenyl)-benzamidine]"
16,252 to 253 °C (dec.),"c1ccc(N=C(NC(=Nc2ccccc2)N2CCCCCCC2)c2ccccc2)cc1 (as salt: hydroiodid) [Example 22, N-(azocan-1-yl-phenylimino-methyl)-N′-phenyl-benzamidine]"
17,196 to 198 °C (dec.),"Cc1cccc(C)c1C(=NC(=Nc1ccccc1)N1CCCC(O)C1)Nc1ccc(F)cc1 (stereo not drawn) (as salt: hydrochloride) [Example 62, N-(4-fluoro-phenyl)-N′-[(3-hydroxy-piperidin-1-yl)-phenylimino-methyl]-2,6-dimethyl-benzamidine]"
